Values belong to the compound of their own block, whether it stands above or below them.
Target: human LPA1 (Homo sapiens, UniProt Q92633)
Assay: In vitro functional assay of lysophosphatidic acid receptor 1 activity (calcium flux)
Type: cell-based
Conditions: B103 cells stably expressing human LPA1; Fluo-4 NW calcium flux after lysophosphatidic acid (18:1) at EC80; compounds 100 pM to 10 μM; read-out: LPA1 IC50
Method: In vitro functional assay of lysophosphatidic acid receptor 1 activity
Primary compound plates were prepared in 100% DMSO (Sigma-Aldrich), secondary compound plates were prepared at 10× concentration in DiVEM (Invitrogen), and tertiary compound plates were prepared at 3x concentration in assay buffer containing HBSS (no Ca^+2/Mg^+2, Invitrogen) and 0.1% BSA (Sigma-Aldrich). Fluo-4 NW calcium assay dye (Invitrogen) was prepared as per manufacturer's recommendations in assay buffer. B103 cells stably expressing human LPA1(J. Chun lab, UCSD) were grown to confluency in DMEM media (Invitrogen) containing 10% FBS (ATCC), […] (Sigma-Aldrich) and […] Geneticin (Sigma-Aldrich), and detached with Accutase (Sigma-Aldrich) prior to assay. The freshly detached cells were resuspended in growth media and plated in black, clear-bottom 96-well plates (Costar) containing compound (i.e., secondary compound plate) at a density of 5×10^4 cells/well. Once plated, cells were left at room temperature for 30 minutes and then transferred to a 37° C., […] incubator for 24 hours. After 24 hours, the growth media was then removed and freshly prepared Fluo-4 NW calcium assay dye was added to cells. Compounds (i.e. tertiary compound plates) were then added back to the dye/cells, returned to the incubator for 30 minutes, and then kept at room temperature for an additional 30 minutes. Finally, lysophosphatidic acid (18:1) at the EC80 concentration was added and calcium flux measured using FlexStation 3 (Molecular Devices). Sigmoidal dose-response curves were generated by measuring […] over 45 sec and calculating the area under the curve. Dose response curves and IC50 values were generated using Prism (GraphPad). Compounds were tested at a final concentration range of 100 pM to 10 μM in 0.10% DMSO.

human LPA1, sequence (Q92633 whole entry): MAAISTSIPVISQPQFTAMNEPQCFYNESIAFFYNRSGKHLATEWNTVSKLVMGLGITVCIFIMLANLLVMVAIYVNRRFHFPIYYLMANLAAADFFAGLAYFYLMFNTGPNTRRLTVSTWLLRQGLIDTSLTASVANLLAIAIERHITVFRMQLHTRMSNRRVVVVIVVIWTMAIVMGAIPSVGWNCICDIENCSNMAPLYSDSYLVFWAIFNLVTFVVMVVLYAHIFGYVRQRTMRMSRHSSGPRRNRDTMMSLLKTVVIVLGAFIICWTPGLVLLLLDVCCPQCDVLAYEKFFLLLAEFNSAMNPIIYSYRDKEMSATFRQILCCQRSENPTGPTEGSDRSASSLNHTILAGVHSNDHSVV

IC50: 0.1 to 1 µM
Compound: Cc1ccc(NC(=O)C2(c3ccccc3C(C)C)CC(N(C)C)C2)c(OC(F)F)n1 (stereo not shown) [Example 39, N-(2-(difluoromethoxy)-6-methylpyridin-3-yl)-3-(dimethylamino)-1-(2-isopropylphenyl)cyclobutane-1-carboxamide]

IC50: > 1 µM
Compound: Cc1ccc(NC(=O)C2(c3ccccc3C(C)C)CC(N3CCC3)C2)c(OC(F)F)n1 (stereo not shown) [Example 41, 3-(azetidin-1-yl)-N-(2-(difluoromethoxy)-6-methylpyridin-3-yl)-1-(2-isopropylphenyl)cyclobutane-1-carboxamide]

IC50: 0.1 to 1 µM
Compound: Cc1ccc(NC(=O)C2(c3ccccc3C(C)C)CC(N3CC(O)C3)C2)c(OC(F)F)n1 (stereo not shown) [Example 42, N-(2-(difluoromethoxy)-6-methylpyridin-3-yl)-3-(3-hydroxyazetidin-1-yl)-1-(2-isopropylphenyl)cyclobutane-1-carboxamide]

IC50: 0.1 to 1 µM
Compound: Cc1ccc(NC(=O)C2(c3ccccc3C(C)C)CC(N(C)S(C)(=O)=O)C2)c(OC(F)F)n1 (stereo not shown) [Example 44, N-(2-(difluoromethoxy)-6-methylpyridin-3-yl)-1-(2-isopropylphenyl)-3-(N-methylmethylsulfonamido)cyclobutane-1-carboxamide]

IC50: < 0.01 µM
Compound: COc1ccc(NC(=O)C2(c3ccccc3C(C)C)CC(CC(=O)O)C2)c(OC(F)F)n1 (stereo not shown) [Example 46, 2-(3-((2-(difluoromethoxy)-6-methoxypyridin-3-yl)carbamoyl)-3-(2-isopropylphenyl)cyclobutyl)acetic acid]

IC50: 0.01 to 0.1 µM
Compound: CC(C)c1ccccc1C1(C(=O)Nc2ncc(Cl)cc2OC(F)F)CC(CC(=O)O)C1 (stereo not shown) [Example 47, 2-(3-((5-chloro-3-(difluoromethoxy)pyridin-2-yl)carbamoyl)-3-(2-isopropylphenyl)cyclobutyl)acetic acid]

IC50: 0.01 to 0.1 µM
Compound: Cc1ccc(NC(=O)C2(c3ncccc3C(C)C)CC(CC(=O)O)C2)c(OC(F)F)n1 (stereo not shown) [Example 48, 2-(3-((2-(difluoromethoxy)-6-methylpyridin-3-y1)carbamoyl)-3-(3-isopropylpyridin-2-yl)cyclobutyl)acetic acid]

IC50: 0.01 to 0.1 µM
Compound: Cc1ccc(NC(=O)C2(c3ccccc3C(C)C)CC(O)(c3ccc(C#N)cn3)C2)c(OC(F)F)n1 (stereo not shown) [Example 50, 3-(5-cyanopyridin-2-yl)-N-(2-(difluoromethoxy)-6-methylpyridin-3-yl)-3-hydroxy-1-(2-isopropylphenyl)cyclobutane-1-carboxamide]

IC50: 0.01 to 0.1 µM
Compound: CCC1(O)CC(C(=O)Nc2ccc(C)nc2OC(F)F)(c2ccccc2C(C)C)C1 (stereo not shown) [Example 52, N-(2-(difluoromethoxy)-6-methylpyridin-3-yl)-3-ethyl-3-hydroxy-1-(2-isopropylphenyl)cyclobutane-1-carboxamide]

IC50: 0.01 to 0.1 µM
Compound: COc1cc(Cl)ncc1NC(=O)C1(c2ccccc2C(C)C)CC(O)(C(F)(F)C(=O)O)C1 (stereo not shown) [Example 56, 2-(3-((6-chloro-4-methoxypyridin-3-yl)carbamoyl)-1-hydroxy-3-(2-isopropylphenyl)cyclobutyl)-2,2-difluoroacetic acid]

More lines, now with the values behind:

Compound: COc1cc(Cl)cnc1NC(=O)C1(c2ccccc2C(C)C)COC1 [Example 20, N-(5-chloro-3-methoxypyridin-2-yl)-3-(2-isopropylphenyl)oxetane-3-carboxamide]
IC50: > 1 µM

Compound: COc1cc(Cl)ccc1NC(=O)C1(c2ccccc2C(C)C)COC1 [Example 21, N-(4-chloro-2-methoxyphenyl)-3-(2-isopropylphenyl)oxetane-3-carboxamide]
IC50: 0.01 to 0.1 µM

Compound: CC(C)c1ccccc1C1(C(=O)Nc2ncc(Cl)cc2OC(F)F)COC1 [Example 22, N-(5-chloro-3-(difluoromethoxy)pyridin-2-yl)-3-(2-isopropylphenyl)oxetane-3-carboxamide]
IC50: 0.01 to 0.1 µM

Compound: COc1cc(Br)cnc1NC(=O)C1(c2ccccc2C(C)C)COC1 [Example 23, N-(5-bromo-3-methoxypyridin-2-yl)-3-(2-isopropylphenyl)oxetane-3-carboxamide]
IC50: 0.1 to 1 µM

Compound: CC(C)c1ccccc1C1(C(=O)Nc2ncc(Br)cc2OC(F)F)COC1 [Example 24, N-(5-bromo-3-(difluoromethoxy)pyridin-2-yl)-3-(2-isopropylphenyl)oxetane-3-carboxamide]
IC50: 0.01 to 0.1 µM

Compound: COc1cc(OC(F)F)c(NC(=O)C2(c3ccccc3C(C)C)COC2)cn1 [Example 25, N-(4-(difluoromethoxy)-6-methoxypyridin-3-yl)-3-(2-isopropylphenyl)oxetane-3-carboxamide]
IC50: 0.1 to 1 µM

Compound: Cc1cc(OC(F)F)c(NC(=O)C2(c3ccccc3C(C)C)COC2)cn1 [Example 26, N-(4-(difluoromethoxy)-6-methylpyridin-3-yl)-3-(2-isopropylphenyl)oxetane-3-carboxamide]
IC50: 0.01 to 0.1 µM

Compound: CC(C)c1ccccc1C1(C(=O)Nc2ccc(F)cc2OC(F)F)COC1 [Example 27, N-(2-(difluoromethoxy)-4-fluorophenyl)-3-(2-isopropylphenyl)oxetane-3-carboxamide]
IC50: 0.01 to 0.1 µM

Compound: COc1nc(Cl)ccc1NC(=O)C1(c2ccccc2C(C)C)COC1 [Example 28, N-(6-chloro-2-methoxypyridin-3-yl)-3-(2-isopropylphenyl)oxetane-3-carboxamide]
IC50: > 1 µM

Compound: COc1ccc(NC(=O)C2(c3ccccc3C(C)C)COC2)c(OC2CC2)n1 [Example 29, N-(2-cyclopropoxy-6-methoxypyridin-3-yl)-3-(2-isopropylphenyl)oxetane-3-carboxamide]
IC50: 0.1 to 1 µM

Compound: COc1ccc(NC(=O)C2(c3ccccc3C(C)C)COC2)c(OC(C)C)n1 [Example 30, N-(2-isopropoxy-6-methoxypyridin-3-yl)-3-(2-isopropylphenyl)oxetane-3-carboxamide]
IC50: 0.01 to 0.1 µM

Compound: COC[C@H](C)Oc1nc(OC)ccc1NC(=O)C1(c2ccccc2C(C)C)COC1 [Example 31, (S)-3-(2-isopropylphenyl)-N-(6-methoxy-2-((1-methoxypropan-2-yl)oxy)pyridin-3-yl)oxetane-3-carboxamide]
IC50: 0.01 to 0.1 µM

Compound: CC(C)c1ccccc1C1(C(=O)Nc2cnc(Cl)cc2OC2CC2)COC1 [Example 32, N-(6-chloro-4-cyclopropoxypyridin-3-yl)-3-(2-isopropylphenyl)oxetane-3-carboxamide]
IC50: 0.1 to 1 µM

Compound: CC(C)Oc1cc(Cl)ncc1NC(=O)C1(c2ccccc2C(C)C)COC1 [Example 33, N-(6-chloro-4-isopropoxypyridin-3-yl)-3-(2-isopropylphenyl)oxetane-3-carboxamide]
IC50: 0.01 to 0.1 µM

Compound: COC[C@H](C)Oc1cc(Cl)ncc1NC(=O)C1(c2ccccc2C(C)C)COC1 [Example 34, (S)-N-(6-chloro-4-((1-methoxypropan-2-yl)oxy)pyridin-3-yl)-3-(2-isopropylphenyl)oxetane-3-carboxamide]
IC50: 0.01 to 0.1 µM

Compound: COc1cnc(NC(=O)C2(c3ccccc3C(C)C)COC2)c(OC(F)F)c1 [Example 35, N-(3-(difluoromethoxy)-5-methoxypyridin-2-yl)-3-(2-isopropylphenyl)oxetane-3-carboxamide]
IC50: 0.1 to 1 µM

Compound: COc1cc(C)ncc1NC(=O)C1(c2ccccc2C(C)C)COC1 [Example 36, 3-(2-isopropylphenyl)-N-(4-methoxy-6-methylpyridin-3-yl)oxetane-3-carboxamide]
IC50: > 1 µM

Compound: Cc1ccc(NC(=O)C2(c3ncccc3C(C)C)COC2)c(OC(F)F)n1 [Example 37, N-(2-(difluoromethoxy)-6-methylpyridin-3-yl)-3-(3-isopropylpyridin-2-yl)oxetane-3-carboxamide]
IC50: 0.1 to 1 µM
